Source: patent US9550742B2, “11-OXO-10,11-dihydrodibenzo[B,F][1,4]thiazepine S-oxide derivatives and their use as dopamine D2 receptor antagonists” (The United States of America, as Represented by the …, priority 2013, dated 2017)

What was measured:
[1] = molecular target: D2L human dopamine receptors (Homo sapiens, UniProt P14416); experiment: D2 binding assay ([^3H]methylspiperone, HEK membranes)
Method: Compounds were tested for differences in affinity between three dopamine receptor subtypes using radio-labeled ligand binding assays. The first assay determined the Ki value of the compounds for the D2 DAR subtype using stable HEK cell lines expressing the D2L human dopamine receptors (Codex Biosciences, Gaithersburg, Md.). Cells were cultured in Dulbecco's modified Eagle's Medium containing 10% FBS, 1,000 units/mL Penicillin, 1,000 mg/mL Streptomycin, 100 mM Sodium Pyruvate, 1 μg/mL Gentamicin, and […] G418. All cells were maintained at 37° C. in 5% CO2 and 90% humidity. For radioligand binding assays, cells were removed mechanically using calcium and magnesium-free Earle's Balanced Salt Solution (EBSS(−)). Intact cells were collected by centrifugation and then lysed with 5 mM Tris-HCl and 5 mM MgCl2 at pH 7.4 in a glass homogenizer. Homogenates were centrifuged at 20,000×g for 30 minutes. The membranes were re-suspended in EBSS (pH 7.4) and protein concentration was determined using a Bradford assay according to the manufacturer's recommendations (Bio-Rad). Membranes were diluted to 24 mg/mL. […] Membrane preparations were incubated for 90 min at room temperature with various concentrations of radioligand in a reaction volume of 250 μL EBSS containing 200 mM sodium metabisulfite. Non-specific binding was determined in the presence of 4 μM (+)-butaclamol. Bound ligand was separated from unbound by filtration through GF/C filters using a PerkinElmer cell harvester with ice cold EBSS (4 washes) and quantified on a Top-count (PerkinElmer) after addition of scintillation solution. […] In order to determine the affinity of a given compound for a receptor type, competition-binding assays were performed. […] Reactions were incubated, terminated, and quantified as indicated above.

5-HT2A = 5-HT2A (Homo sapiens, UniProt P28223); experiment: Affinity profile panel: 5-HT2A; details: inhibition of binding
5-HT2B = 5-HT2B (Homo sapiens, UniProt P41595); experiment: Affinity profile panel: 5-HT2B; details: inhibition of binding
Source text: (§1) Antipsychotic drugs (depending on the specific drug) typically interact with a range of serotonergic, adrenergic, histaminergic, and muscarinic receptors.

5-HT6 = 5-HT6 (Homo sapiens, UniProt P50406); experiment: Affinity profile panel: 5-HT6; details: inhibition of binding
5-HT7 = 5-HT7 (Homo sapiens, UniProt P34969); experiment: Affinity profile panel: 5-HT7; details: inhibition of binding
Alpha1A = Alpha1A (Homo sapiens, UniProt P35348); experiment: Affinity profile panel: Alpha1A; details: inhibition of binding
Alpha1D = Alpha1D (Homo sapiens, UniProt P25100); experiment: Affinity profile panel: Alpha1D; details: inhibition of binding
Alpha2A = Alpha2A (Homo sapiens, UniProt P08913); experiment: Affinity profile panel: Alpha2A; details: inhibition of binding
Alpha2B = Alpha2B (Homo sapiens, UniProt P18089); experiment: Affinity profile panel: Alpha2B; details: inhibition of binding
GABAA = experiment: Affinity profile panel: GABAA; details: inhibition of binding
D4 = D4 (Homo sapiens, UniProt P21917); experiment: Affinity profile panel: D4; details: inhibition of binding
DOR = DOR (Homo sapiens, UniProt P41143); experiment: Affinity profile panel: DOR; details: inhibition of binding
H2 = H2 (Homo sapiens, UniProt P25021); experiment: Affinity profile panel: H2; details: inhibition of binding
KOR = KOR (Homo sapiens, UniProt P41145); experiment: Affinity profile panel: KOR; details: inhibition of binding
M3 = M3 (Homo sapiens, UniProt P20309); experiment: Affinity profile panel: M3; details: inhibition of binding
M4 = M4 (Homo sapiens, UniProt P08173); experiment: Affinity profile panel: M4; details: inhibition of binding
MOR = MOR (Homo sapiens, UniProt P35372); experiment: Affinity profile panel: MOR; details: inhibition of binding
PBR = PBR (Homo sapiens, UniProt P30536); experiment: Affinity profile panel: PBR; details: inhibition of binding
SERT = SERT (Homo sapiens, UniProt P31645); experiment: Affinity profile panel: SERT; details: inhibition of binding
Source text: as §1

Sigma 1 = Sigma 1 (Homo sapiens, UniProt Q99720); experiment: Affinity profile panel: Sigma 1; details: inhibition of binding
Sigma 2 = Sigma 2 (Homo sapiens, UniProt Q5BJF2); experiment: Affinity profile panel: Sigma 2; details: inhibition of binding
D2 receptor = experiment: PET study, displacement of the D2 receptor label [^11C]SV-130; type: in vivo, monkeys; details: i.v.
Method: Positron emission tomography (PET) was performed using live monkeys. A radioactive PET probe ([^11C]SV-130) for the D2 receptor was injected intravenously. PET images of coronal sections of the brain were obtained at the level of the caudate putamen. […] Monkeys were treated (i.v.) with either 1 mg/kg or 5 mg/kg ML321, a compound of Formula I (compound 55, Example 61).
The time course of PET ([^11C]SV-130) labelling of the caudate, putamen, and cerebellumum in the absence or presence of either 1 mg/kg or 5 mg/kg ML321 was plotted. […] When ML321 was injected i.v. the [^11C]SV-130 signal decreased gradually from about 20 minutes through the 100 minute observation period. The [^11C]SV-130 signal decrease was particularly dose dependent in the putamen graph.
The significance of the PET [^11C]SV-130 labelling data are two-fold. […] Second, the experiments provide direct evidence that ML321 can occupy D2 receptors in the CNS in living animals and completely block D2 receptors at a reasonable pharmacological dose.

D3 receptor = molecular target: T1, D3 receptor (Rattus norvegicus, UniProt P19020); experiment: Pramipexole-induced yawning; type: in vivo; details: rats, 3.2 and 10 mg/kg
T1 construct: from tissue; host or cells: live rats (whole animal)
Source text: Pramipexole, an agonist of the D3 receptor, produces yawning when administered subcutaneously. This response is known to be mediated by the D3 receptor and not the D2 receptor (Collins, Id.).
The sumanirole-induced hypothermia and pramipexole-induced yawning experiments show ML321 can act selectively to block the D2 receptor without blocking the D3 receptor when administered to living animals. Thus, the D2 selectivity identified using cellular assays can also be seen in living animals.

D2L human dopamine receptors, sequence (P14416 whole entry): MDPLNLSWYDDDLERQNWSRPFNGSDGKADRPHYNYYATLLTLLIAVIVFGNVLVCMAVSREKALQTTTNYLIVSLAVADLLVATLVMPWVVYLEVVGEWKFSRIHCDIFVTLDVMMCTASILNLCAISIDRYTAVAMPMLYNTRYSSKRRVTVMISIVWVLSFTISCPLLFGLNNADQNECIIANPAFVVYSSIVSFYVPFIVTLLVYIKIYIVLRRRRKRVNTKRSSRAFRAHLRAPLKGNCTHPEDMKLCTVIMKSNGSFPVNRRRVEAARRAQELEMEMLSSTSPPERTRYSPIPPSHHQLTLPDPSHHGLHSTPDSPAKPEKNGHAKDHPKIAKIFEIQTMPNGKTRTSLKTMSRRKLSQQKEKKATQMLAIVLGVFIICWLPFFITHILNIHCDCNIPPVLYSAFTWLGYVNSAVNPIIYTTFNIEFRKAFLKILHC
5-HT7, sequence (P34969 whole entry, species assumed): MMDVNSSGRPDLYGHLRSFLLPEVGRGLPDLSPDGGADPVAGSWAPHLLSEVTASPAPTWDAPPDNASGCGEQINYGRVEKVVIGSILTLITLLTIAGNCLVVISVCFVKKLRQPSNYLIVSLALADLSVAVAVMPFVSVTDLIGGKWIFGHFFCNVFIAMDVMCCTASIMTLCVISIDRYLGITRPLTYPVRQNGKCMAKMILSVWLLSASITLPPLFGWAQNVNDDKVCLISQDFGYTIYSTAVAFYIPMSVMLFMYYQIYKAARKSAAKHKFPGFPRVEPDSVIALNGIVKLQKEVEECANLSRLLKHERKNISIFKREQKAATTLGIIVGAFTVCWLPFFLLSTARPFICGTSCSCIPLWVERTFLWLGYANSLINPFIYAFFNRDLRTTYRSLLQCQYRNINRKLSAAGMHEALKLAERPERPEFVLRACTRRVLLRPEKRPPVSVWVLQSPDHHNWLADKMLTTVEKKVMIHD
Sigma 1, sequence (Q99720 whole entry): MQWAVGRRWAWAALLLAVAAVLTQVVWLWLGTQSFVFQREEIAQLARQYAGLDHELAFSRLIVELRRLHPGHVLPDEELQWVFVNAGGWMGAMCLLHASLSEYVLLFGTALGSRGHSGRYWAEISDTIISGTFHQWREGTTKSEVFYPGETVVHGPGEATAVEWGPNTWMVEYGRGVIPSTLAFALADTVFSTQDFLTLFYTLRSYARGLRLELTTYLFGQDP
H2, sequence (P25021 whole entry): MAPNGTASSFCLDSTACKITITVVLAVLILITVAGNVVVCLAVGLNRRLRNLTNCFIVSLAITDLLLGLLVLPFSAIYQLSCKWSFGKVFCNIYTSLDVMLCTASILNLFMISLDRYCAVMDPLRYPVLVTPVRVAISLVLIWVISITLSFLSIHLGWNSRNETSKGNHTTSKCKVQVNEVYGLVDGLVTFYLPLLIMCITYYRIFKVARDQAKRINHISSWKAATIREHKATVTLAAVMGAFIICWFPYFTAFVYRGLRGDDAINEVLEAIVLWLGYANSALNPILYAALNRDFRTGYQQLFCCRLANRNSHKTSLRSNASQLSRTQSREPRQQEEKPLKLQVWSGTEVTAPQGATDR
T1 sequence (P19020 whole entry): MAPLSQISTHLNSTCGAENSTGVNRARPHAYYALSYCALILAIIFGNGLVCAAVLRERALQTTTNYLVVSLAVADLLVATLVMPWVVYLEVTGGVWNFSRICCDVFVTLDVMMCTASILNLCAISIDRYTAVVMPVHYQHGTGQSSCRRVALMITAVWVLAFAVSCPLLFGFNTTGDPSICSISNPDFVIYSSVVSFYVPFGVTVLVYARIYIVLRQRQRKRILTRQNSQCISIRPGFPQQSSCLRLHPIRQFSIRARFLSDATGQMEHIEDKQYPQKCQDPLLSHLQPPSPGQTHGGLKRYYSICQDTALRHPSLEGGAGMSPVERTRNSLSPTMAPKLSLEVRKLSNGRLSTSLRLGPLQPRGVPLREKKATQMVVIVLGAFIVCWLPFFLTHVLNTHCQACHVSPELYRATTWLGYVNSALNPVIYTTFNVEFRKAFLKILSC
D4, sequence (P21917 whole entry): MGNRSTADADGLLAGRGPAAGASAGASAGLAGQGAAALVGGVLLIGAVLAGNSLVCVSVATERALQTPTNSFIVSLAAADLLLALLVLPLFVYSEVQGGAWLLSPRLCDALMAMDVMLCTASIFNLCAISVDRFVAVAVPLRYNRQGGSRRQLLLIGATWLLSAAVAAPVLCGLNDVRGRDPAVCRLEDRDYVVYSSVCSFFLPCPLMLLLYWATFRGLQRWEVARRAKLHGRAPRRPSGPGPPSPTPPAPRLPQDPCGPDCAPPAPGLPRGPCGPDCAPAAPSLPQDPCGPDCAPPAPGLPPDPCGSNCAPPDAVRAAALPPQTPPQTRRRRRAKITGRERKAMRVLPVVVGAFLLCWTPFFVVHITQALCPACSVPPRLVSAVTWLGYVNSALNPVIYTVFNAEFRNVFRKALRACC
Alpha1D, sequence (P25100 whole entry): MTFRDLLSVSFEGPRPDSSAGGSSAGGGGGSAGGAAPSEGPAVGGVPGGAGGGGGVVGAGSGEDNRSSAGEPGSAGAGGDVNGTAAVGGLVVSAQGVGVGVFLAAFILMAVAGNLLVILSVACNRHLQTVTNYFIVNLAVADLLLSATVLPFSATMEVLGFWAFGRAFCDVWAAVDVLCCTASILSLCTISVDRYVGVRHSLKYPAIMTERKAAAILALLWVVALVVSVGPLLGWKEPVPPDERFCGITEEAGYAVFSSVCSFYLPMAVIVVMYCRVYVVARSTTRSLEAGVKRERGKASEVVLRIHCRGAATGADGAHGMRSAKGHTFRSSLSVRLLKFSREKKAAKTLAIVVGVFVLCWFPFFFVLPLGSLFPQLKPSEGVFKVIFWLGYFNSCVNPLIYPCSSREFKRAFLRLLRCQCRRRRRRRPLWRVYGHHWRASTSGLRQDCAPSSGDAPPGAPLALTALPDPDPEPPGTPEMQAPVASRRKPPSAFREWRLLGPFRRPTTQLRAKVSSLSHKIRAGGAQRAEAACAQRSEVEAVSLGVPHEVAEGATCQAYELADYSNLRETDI
Sigma 2, sequence (Q5BJF2 whole entry): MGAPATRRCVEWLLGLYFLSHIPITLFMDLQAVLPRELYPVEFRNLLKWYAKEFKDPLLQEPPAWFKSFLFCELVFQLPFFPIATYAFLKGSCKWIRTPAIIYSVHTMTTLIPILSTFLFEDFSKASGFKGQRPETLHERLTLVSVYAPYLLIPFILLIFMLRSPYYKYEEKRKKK
5-HT2A, sequence (P28223 whole entry, species assumed): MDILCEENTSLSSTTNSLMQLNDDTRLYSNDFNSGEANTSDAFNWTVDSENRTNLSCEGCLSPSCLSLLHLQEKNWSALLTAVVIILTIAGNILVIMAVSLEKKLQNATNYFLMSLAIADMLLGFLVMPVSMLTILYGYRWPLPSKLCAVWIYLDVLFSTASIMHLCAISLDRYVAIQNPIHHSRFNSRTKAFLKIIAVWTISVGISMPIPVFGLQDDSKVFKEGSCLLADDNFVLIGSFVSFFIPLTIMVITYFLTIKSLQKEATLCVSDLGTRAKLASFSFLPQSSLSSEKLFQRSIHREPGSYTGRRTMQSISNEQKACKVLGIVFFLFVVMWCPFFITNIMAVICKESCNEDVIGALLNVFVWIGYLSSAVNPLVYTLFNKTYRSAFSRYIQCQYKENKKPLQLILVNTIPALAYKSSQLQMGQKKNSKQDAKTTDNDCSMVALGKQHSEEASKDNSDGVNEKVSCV
SERT, sequence (P31645 whole entry, species assumed): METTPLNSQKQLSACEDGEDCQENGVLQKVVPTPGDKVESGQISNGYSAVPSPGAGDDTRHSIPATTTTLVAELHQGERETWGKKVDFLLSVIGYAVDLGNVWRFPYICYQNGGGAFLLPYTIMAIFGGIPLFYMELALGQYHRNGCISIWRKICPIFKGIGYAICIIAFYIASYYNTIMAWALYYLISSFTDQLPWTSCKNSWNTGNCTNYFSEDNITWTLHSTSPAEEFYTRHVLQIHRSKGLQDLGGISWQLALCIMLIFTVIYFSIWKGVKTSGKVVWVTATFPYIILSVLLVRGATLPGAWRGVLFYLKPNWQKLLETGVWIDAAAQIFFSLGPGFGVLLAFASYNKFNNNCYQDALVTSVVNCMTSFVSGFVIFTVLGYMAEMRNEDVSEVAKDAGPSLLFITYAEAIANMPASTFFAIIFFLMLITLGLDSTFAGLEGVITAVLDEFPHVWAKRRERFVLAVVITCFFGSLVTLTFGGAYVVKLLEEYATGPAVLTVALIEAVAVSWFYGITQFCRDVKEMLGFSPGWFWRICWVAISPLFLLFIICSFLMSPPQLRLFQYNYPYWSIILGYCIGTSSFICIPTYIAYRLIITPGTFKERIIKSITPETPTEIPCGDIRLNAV
KOR, sequence (P41145 whole entry): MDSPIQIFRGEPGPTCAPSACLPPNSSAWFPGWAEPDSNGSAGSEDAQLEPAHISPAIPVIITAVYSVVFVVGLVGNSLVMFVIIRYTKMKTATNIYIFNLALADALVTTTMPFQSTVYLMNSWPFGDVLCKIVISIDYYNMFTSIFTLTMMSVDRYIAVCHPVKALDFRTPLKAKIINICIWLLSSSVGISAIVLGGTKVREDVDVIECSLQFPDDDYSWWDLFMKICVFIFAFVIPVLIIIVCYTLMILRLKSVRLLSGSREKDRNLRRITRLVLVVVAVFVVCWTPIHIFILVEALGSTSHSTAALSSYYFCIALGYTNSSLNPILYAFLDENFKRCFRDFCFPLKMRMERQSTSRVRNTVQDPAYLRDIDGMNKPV
PBR, sequence (P30536 whole entry, species assumed): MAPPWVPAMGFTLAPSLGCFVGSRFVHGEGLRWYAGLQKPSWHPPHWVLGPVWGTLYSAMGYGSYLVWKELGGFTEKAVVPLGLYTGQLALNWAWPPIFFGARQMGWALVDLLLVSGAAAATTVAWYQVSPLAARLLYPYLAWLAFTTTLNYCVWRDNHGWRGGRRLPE

CN1C(=O)c2ccccc2[S@+]([O-])c2ccc(C(=O)NCCc3cccs3)cc21 [Compound 55, 10-Methyl-11-oxo-N-(2-(thiophen-2-yl)ethyl)-10,11-dihydrodibenzo[b,f][1,4]thiazepine-8-carboxamide 5-(S)-oxide]
Ki [1]: 100 nM | D3/D2 binding Ki ratio ([1]; ratio of D3 (Example 5) to D2 (Example 3) binding assay): 29.0 | Inhibition (%) 5-HT2A (5-HT2A): 46.3% | Inhibition (%) 5-HT2B (5-HT2B): 40.1% | Inhibition (%) 5-HT6 (5-HT6): −15.6% | Inhibition (%) 5-HT7 (5-HT7): 53.3% | Inhibition (%) Alpha1A (Alpha1A): −13.4% | Inhibition (%) Alpha1D (Alpha1D): −22.6% | Inhibition (%) Alpha2A (Alpha2A): 7.3% | Inhibition (%) Alpha2B (Alpha2B): 31.2% | Inhibition (%) GABAA (GABAA): 10.6% | Inhibition (%) D4 (D4): 32.2% | Inhibition (%) DOR (DOR): −23.6% | Inhibition (%) H2 (H2): −9.2% | Inhibition (%) KOR (KOR): 18.2% | Inhibition (%) M3 (M3): 5.2% | Inhibition (%) M4 (M4): 2.4% | Inhibition (%) MOR (MOR): 5.7% | Inhibition (%) PBR (PBR): 31% | Inhibition (%) SERT (SERT): 4.8% | Inhibition (%) Sigma 1 (Sigma 1): 17.5% | Inhibition (%) Sigma 2 (Sigma 2): −16.5% | Blocking of [^11C]SV-130 D2 PET probe binding in the caudate putamen (D2 receptor; monkeys, 1 mg/kg or 5 mg/kg, images 20 to 100 minutes post injection): blocks the binding of the D2 receptor PET probe in the caudate putamen in a dose-dependent fashion | Blocking of [^11C]SV-130 labeling (D2 receptor; monkeys, 5 mg/kg): almost completely blocked | Blood-brain barrier crossing (D2 receptor; primates, PET evidence): can cross the blood-brain barrier in primates | Effect on pramipexole-induced yawning (D3 receptor): no effect on pramipexole-induced yawning
